# Data reported in patent publication US6676950B2, “Neurokinin receptor antagonists and methods of use thereof for inhibiting HIV infection” (The Children's Hospital of Philadelphia, priority 2001, dated 2004).
# How the values were obtained:
# [1] = test system: HIV Bal strain; experiment: HIV RT activity in culture supernatants of HIV Bal strain-infected MDM; format: cell-based, HIV-1; settings: for HIV RT activity increased: MDM, HIV Bal
# Procedure: The cells were also incubated with SP and/or anti-SP antibody. In this case, SP was incubated with (1:1000 dilution in 10% FCS DMEM) or without anti-SP antibody at room temperature for 10 min and then the mixture was added to the cell cultures for 2 h. When the cells were treated with the combination of CP-96,345 and SP, or CP-96,345, SP and anti-SP antibody, CP-96,345 was incubated with the cell culture for 10 min and then SP was added to the MDM or CP-96,345, SP and anti-SP (1:1000 in 10% FCS DMEM) were incubated for 10 min at room temperature and the mixture was incubated with the MDM for 2 h before infection with HIV. Untreated MDM served as controls. The cells were treated prior to, during, and throughout the infection.
# HIV Infection: After 2 h incubation with or without the reagents described above, the cells were infected with equal amounts of cell-free HIV based on p24 antigen content (20 ng/10^6 cells) overnight, and then washed to remove unbound virus. Fresh media containing SP and/or CP-96,345 or anti-SP antibody were added to the MDM as described above. The culture media and the reagents were replaced twice weekly. The culture supernatants were harvested for HIV reverse transcriptase (RT) activity determinations. After HIV infection, the MDM were incubated for 8 to 12 days. At the termination of the experiments, cellular RNA was extracted for assessment of HIV gag gene expression using RT-PCR or real time RT-PCR assays.
# The HIV RT activity assay was carried out based on the technique of Willey et al. (30) with modification (22).
# [2] = test system: CCR5; experiment: Flow cytometry of CCR5 receptor expression on MDM; format: cell-based, human; settings: incubated overnight (24 h); direct immunofluorescence
# Procedure: The cells were removed from the culture plate and then resuspended in 100 μl of phosphate-buffered saline (PBS). After incubation with 20 μl of either anti-CCR5-FITC or anti-CXCR4-FITC or anti-CD4-FITC or anti-CD14-FITC for 45 min at 4° C., the cells were washed twice with PBS and fixed with 1% paraformaldehyde in PBS. Fluorescein-conjugated control antibodies were isotype-matched IgG. Fluorescence was analyzed on an EPICS-Elite flow cytometer (Beckman-Coulter Electronics, Hialeah, Fla.).
# [3] = test system: HIV LTR promoter; experiment: HIV LTR-driven CAT activity assay in U38 cells; format: cell-based
# Text: ACH-2 and U38 cell lines (25, 26) were obtained from the NIH AIDS Reagent Program. DNA extracted from ACH-2 cells was used as a positive standard for HIV DNA PCR as previously reported (27). The U38 cell line contains stably integrated, silent copies of the HIV LTR (long terminal repeat) promoter linked to a CAT (chloramphenicol acetyltransferase) gene and was used to study the effect of SP and/or CP-96,345 and R-113281 on the activation of HIV LTR promoter.
# Chloramphenicol acetyltransferase (CAT) activity assay: U38 cells (2×10^6 cells) were incubated with different concentrations of SP and/or CP-96,345 or R-113281 for 48 h. Untreated U38 cells were used as a background control. Cellular proteins were extracted using 1X Reporter Lysis Bufffer (Promega Corp., Madison, Wis.). The lysates were incubated with a mixture containing 0.15 μCi of ^14C-labeled chloramphenicol (DuPont Inc., Boston, Mass.) and 200 μg/ml of n-Butyryl CoA (Promega Corp., Madison, Wis.) in a total volume of 125 μl at 37° C. for 3 h. The acetylated forms of chloramphenicol were extracted with xylene (Aldrich Chemical Company, Milwaukee, Wis.). CAT activity of each sample was quantified using a liquid-scintillation counter (Packard Instrument Company, Downers Grove, Ill.). The results were expressed as the ratio of CAT activity (CPM) of the SP and/or CP-96,345-treated or R-113281-treated U38 to that of the background control.
compound,measurement,setting,value
"COc1ccccc1CN[C@H]1C2CCN(CC2)[C@H]1C(c1ccccc1)c1ccccc1 [CP-96,344]",viral replication as determined by HIV RT activity,"[1]; 10^−7M, 8 days after infection, vs HIV infection control",did not have the effect
same,CCR5 receptor expression on MDM (percentage positive cells),[2],did not affect
Substance P [SP],HIV RT activity increased,"[1]; SP 10^−6M, 12 days after infection",58%
same,HIV RT activity increased,"[1]; SP 10^−8M, 12 days after infection",40%
same,HIV RT activity increased,"[1]; SP 10^−10M, 12 days after infection",14%
same,HIV replication in MDM (HIV RT activity and HIV gag mRNA levels),"[1]; SP alone 10^−6M, 12 days after infection",enhanced HIV replication
same,HIV LTR-driven CAT activity,"[3]; SP 10^−10 to 10^−6M, 48 h, P<0.05 vs untreated control cells",significantly increased
same,HIV LTR-driven CAT activity,"[3]; SP (10^−5M), 48 hours",significantly increases
